In patent US6828450B2, “Triptycene analogs” (Kansas State University Research Foundation, priority 2000, dated 2004):
pIC50: −log10 of the molar value. Values joined by “and” are separate entries in the source; they are usually repeats but may differ in a detail not shown here. Identical values can stand only once. Like-named read-outs stand apart in the source and are kept apart here.

How the values were obtained:
[1] = test system: L1210 cells; test: DNA cleavage (intact chromatin precipitation) in L1210 cells; format: cell-based, murine
Experimental: FIG. 19. Comparison of the concentration-dependent effects of novel TT analogs and known DNA-damaging anticancer drugs on DNA cleavage in L1210 cells in vitro. […] After lysing the cells in HLB containing 0.2% Triton X-100, the detergent-soluble DNA fragments present in the supernatants and the intact chromatin DNA remaining in the pellets were separated by centrifugation and their radioactivity estimated by LSC. Results are expressed as [cpm in supernatant/cpm in supernatant+pellet]×100 at 24 h. For untreated controls (5.3±0.6% DNA fragmentation; striped area), the supernatant is 741±79 cpm and the pellet is 13,293±1,446 cpm.
FIG. 20. Comparison of the abilities of novel TT analogs to induce DNA cleavage in L1210 cells in vitro. Cells containing prelabeled DNA were incubated at 37° C. for 24 h in the presence or absence (control) of 7 μM concentrations of the indicated compounds. The protocol of the experiment and the determination of the results were identical to those of FIG. 12.
FIG. 22. Irreversibility of the effects of novel TT analogs and known DNA-damaging anticancer drugs on DNA cleavage in L1210 cells in vitro. Cells containing prelabeled DNA were incubated at 37° C. for various periods of time in the presence or absence (control) of 10 μM TT1 or TT2 and 1.6 μM DAU or CPT. The protocol of the experiment and the determination of the results at 24 h were identical to those of FIG. 19, except that the drugs were either maintained in the medium for the whole 24-h period of incubation (open) or removed after the first 3 (striped) and 8 h (closed). After spinning and washing the appropriate samples to remove the drugs, cells were resuspended in 0.5 ml of fresh medium to complete the 24-h period of incubation in the absence of drugs. Vehicle-treated controls were similarly spun and washed at 3 and 8 h. Bars: means±SD (n=3).
(§1) Drug-induced DNA cleavage was determined by intact chromatin precipitation, using L1210, HL-60-S, HL-60-RV and HL-60-R8 cells which were prelabeled with 1 μCi of ^3H-thymidine for 2 h at 37° C., washed with 3×1 ml of ice-cold PBS, collected by centrifugation, and resuspended in fresh FCS-containing RPMI 1640 medium at a density of about 1×10^6 cells/0.5 ml for L1210 and 0.5×10^6 cells/0.5 ml for HL cells. Except when otherwise specified, such cells containing prelabeled DNA were then exposed for 24 h to TTs and drugs known to induce DNA fragmentation. After centrifugation at 200×g for 10 min to discard the drugs and wash the cells, the intact cell pellets were lysed for 30 min in 0.5 ml of HLB, centrifuged at 12,000×g for 30 min to collect the supernatants, and resuspended in 0.5 ml of HLB. After another similar centrifugation, the radioactivities in the pooled supernatants (detergent-soluble low molecular weight DNA fragments) and the pellet (intact chromatin DNA) were determined by LSC: % DNA fragmentation=[cpm in supernatant/cpm in supernatant+pellet]×100. Before being counted in 6 ml of Bio-Safe NA, the intact pelleted chromatin was incubated for 2 h at 60° C. in the presence of 0.6 ml of NCS tissue solubilizer (Amersham).

[2] = test system: HL-60-S cells; test: HL-60-S cell viability assay (MTS:PMS); format: cell-based, human
Source text: (§2) The MDR HL-60-RV and HL-60-R8 cells were developed in Melvin S. Center's laboratory (Kansas State University) and similarly maintained in RPMI 1640 medium in the absence of drugs (Marsh W, et al, Cancer Res 46: 4053-4057, 1986; McGrath T et al, and Center M S: Biochem Biophys Res Commun 145: 1171-1176, 1987; Marsh W and Center M S: Cancer Res 47: 5080-5086, 1987; McGrath T, et al, Biochem Pharmacol 38: 3611-3619, 1989; Marquardt D, et al, Cancer Res 50: 1426-1430, 1990; Marquardt D and Center M S: J Natl Cancer Inst 83: 1089-1109, 1991; Krishnamachary N and Center M S; Cancer Res 53: 3658-3661, 1993). Every 4 weeks, these HL-60-RV and HL-60-R8 sublines were exposed to 41 nM DAU for 48 h to stabilize their MDR phenotype. This concentration of DAU, which is not cytotoxic to MDR HL-60 sublines, was removed from the culture medium at least 48 h before experimentation. […] RFs were determined by dividing the IC50 of the MDR cells by that of the sensitive WT parent cell line.

[3] = test system: HL-60-S cells; test: DNA cleavage in HL-60-S cells; format: cell-based, human; conditions: 24 h
Experimental: FIG. 23. Comparison of the concentration-dependent inductions of DNA cleavage by DAU (open symbols in A) and TT2 (closed symbols in B) at 24 h in HL-60-S (circles), HL-60-RV (squares) and HL-60-R8 (triangles) cells containing ^3H-prelabeled DNA in vitro. Results are expressed as [cpm in supernatant/cpm in supernatant+pellet]×100 at 24 h. For untreated controls (14.7±1.7% DNA fragmentation, striped areas), the supernatant (DNA fragments) is 12,815±1,358 cpm and the pellet (intact DNA) is 74,406±9,078 cpm.
as §2, §1

SMILES | DNA fragmentation at 24 h after short exposure ([1]; 10 μM, drug removed after 3 and 8 h) | DNA cleavage (% DNA fragmentation) ([1]; 10 μM, whole 24 h) | concentration at which induction of DNA cleavage peaks ([1]; DNA cleavage at 24 h, internucleosomal fragmentation at 48-72 h) [µM] | times higher TT2 than DAU concentrations needed for the same peak of DNA cleavage ([1]; L1210, 24 h) | times TT2 inhibits viability less effectively than DAU ([2]; HL-60-S) [times] | pIC50 ([2]; HL-60-S, HL-60-RV and HL-60-R8, day 4, read-out: IC50 values, decrease of cell viability, range over the three lines) | pIC50 ([2]; day 2, read-out: IC50, decrease of HL-60-S cell viability) | pIC50 ([2]; day 4, read-out: IC50, decrease of HL-60-S cell viability) | DNA cleavage, % above control level ([3]; 4 μM) [%] | DNA cleavage, % above control level ([3]; 10 μM) [%] | DNA cleavage, % below control level ([3]; 25 μM) [%] | times greater TT2 than DAU concentrations needed for more than 50% of DNA cleavage ([3]; HL-60-S) | DNA cleavage (% DNA fragmentation) ([1]; 1.6 μM, 24 h) [%] | DNA fragmentation at 24 h, drug maintained or removed ([1]; 1.6 μM, maintained or removed after 3 or 8 h) | pIC50 ([2]; Homo sapiens, 48 h, read-out: IC50, decrease of HL-60-S cell viability) | pIC50 ([2]; Homo sapiens, 96 h, read-out: IC50, decrease of HL-60-S cell viability) | DNA cleavage, % above control level ([3]; 1.6 μM, control 15% DNA fragmentation) [%] | DNA cleavage, % below control level ([3]; 10 μM) [%] | DNA cleavage, % above control level (submaximal) ([3]; 0.04-0.64 μM DAU)
COC1=CC(=O)C2=C(C1=O)C1C3=C(C(=O)C=CC3=O)C2c2ccccc21 (stereo not drawn) [TT2, 2-Methoxy-9,10-dihydro-9,10-[1′,2′]benzenoanthracene-1,4,5,8-tetraone] | 58-67% | 61% and 63% | 4 to 10 | about 6 times | 15 | 6.46 to 6.64 | 5.89 | 6.64 | 37 | 14 | 11 | at least 2.5 times |  |  |  |  |  |  | 
COc1cccc2c1C(=O)c1c(O)c3c(c(O)c1C2=O)C[C@@](O)(C(C)=O)C[C@@H]3O[C@H]1C[C@H](N)[C@H](O)[C@H](C)O1 [DAU, daunomycin, reference compound] |  |  |  |  |  |  |  |  | 18 |  | 14 |  | 45 | 33-41% | 7.10 | 7.82 | 67 | 11 | 11-58%
